Target: CrkL (Homo sapiens, UniProt P46109)
Assay: Thermal shift assay, CrkL
Assay type: binding
Settings: increase of 2° C. or greater in Tm defined as positive
Description: Thermal Shift Assay—Thermal shift assay is a thermal-denaturation assay, which can measure the thermal stability of a tested protein. When a protein of interest is bound to a ligand (or drug), its melting temperature increases. For each single well assay, CrkL (1 μg per well), SYPRO® Orange (1:500 dilution from original stock), candidate drugs (same final concentration as in AlphaScreen) and reaction buffer (1×TBS) were mixed. The total volume for a single well was 10 ul. The assay was quantified by a melt curve on a real-time PCR machine, using melting temperatures from 20° C. to 95° C.
To identify specific pCrk inhibitors, thermal shift and in vitro kinase assays were used to distinguish between these possibilities. In a thermal shift assay, each tested protein (purified Ab1 or CrkL) has a melting temperature (Tm) detected by a protein stain dye such as Sypro Orange. After binding to a drug, the Tm of the tested protein will increase as a higher temperature is required to unfold the protein (FIG. 2A). A total of 71 candidate compounds from different libraries were evaluated, which were previously identified by the initial AlphaScreen assay, on both CrkL and Ab1. An increase of 2° C. or greater in Tm (stable increase in three independent experiments) was defined as a positive result in these thermal shift assays.

CrkL, sequence (P46109 whole entry): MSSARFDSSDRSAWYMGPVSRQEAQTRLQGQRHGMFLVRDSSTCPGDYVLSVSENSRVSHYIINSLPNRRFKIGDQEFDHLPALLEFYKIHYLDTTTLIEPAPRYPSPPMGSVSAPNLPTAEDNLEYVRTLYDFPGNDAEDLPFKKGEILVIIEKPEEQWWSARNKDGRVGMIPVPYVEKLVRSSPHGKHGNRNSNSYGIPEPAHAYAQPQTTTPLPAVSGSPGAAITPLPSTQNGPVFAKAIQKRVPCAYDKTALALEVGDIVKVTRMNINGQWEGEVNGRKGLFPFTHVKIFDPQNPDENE

SMILES: CC(C)=CCc1c2c(c3occ(-c4ccc(O)c(O)c4)c(=O)c3c1O)C=CC(C)(C)O2 [Pomiferin, 3′,4′,5-Trihydroxy-6″,6″-dimethyl-6-(3-methylbut-2-en-1-yl)-6″H-pyrano[2″,3″:7,8]isoflavone]
- Tm of CrkL (thermal shift): the Tm of CrkL increased

— patent US20250154180A1, “CRK-LIKE (CRKL) ADAPTOR PROTEIN INHIBITORS AND METHODS OF MAKING AND USING THE SAME” (Rutgers, The State University of New Jersey, priority 2022, published 2025)
